The target in test [1] is T1, E. coli ATP synthase (Escherichia coli, UniProt P68699).
T1 construct: gene atpE
As to the kind of experiment: ATP synthesis kinetics, membrane vesicles, luciferase luminescence. The class given is biochemical. The note with it: ADP varied 0.05-1 mM, NADH-driven, pre-exposure 0-10 min.

The next test deals with T2, E. coli MC4100 acrAB.
T2 construct: MC4100 acrAB efflux-deficient
As to the kind of experiment: microbe, parasite or virus in culture. The note with it: Escherichia coli, MC4100ACRAB, read-out: MIC.

For test [2], the system named is T3, S. aureus ATCC 29740 (Newbould).
T3 construct: ATCC 29740 (Newbould)
As to the kind of experiment: microbe, parasite or virus in culture. Details: species or system bacteria; CLSI broth microdilution MIC, no visible growth. The note with it: Staphylococcus aureus.

A further test relates to S. aureus ATCC 29740hemB. As to the kind of experiment: microbe, parasite or virus in culture. The note with it: Staphylococcus aureus, ATCC29740HEMB, read-out: MIC.
In a further test the test system is T4, Escherichia coli ec309.
T4 construct: ec309
The experiment in a line: microbe, parasite or virus in culture. Details: species or system bacteria; CLSI broth microdilution MIC, no visible growth.

For test [3], the system named is T5, Escherichia coli 70122 CW-2007.
T5 construct: 70122 CW-2007
As to the kind of experiment: microbe, parasite or virus in culture. Details: species or system bacteria; CLSI broth microdilution MIC, no visible growth.

In the next test the test system is T6, Escherichia coli ec302.
T6 construct: ec302
As to the kind of experiment: microbe, parasite or virus in culture. Also noted: species or system bacteria; CLSI broth microdilution MIC, no visible growth.

The subject of test [4] is T7, Escherichia coli 95882 CW-2011.
T7 construct: 95882 CW-2011
As to the kind of experiment: microbe, parasite or virus in culture. Details: species or system bacteria; CLSI broth microdilution MIC, no visible growth.

The next test has as its system T8, Escherichia coli ec305.
T8 construct: ec305
The experiment in a line: microbe, parasite or virus in culture. Details: species or system bacteria; CLSI broth microdilution MIC, no visible growth.

Test [5] deals with T9, Escherichia coli ATCC BAA2471.
T9 construct: ATCC BAA-2471
As to the kind of experiment: microbe, parasite or virus in culture. Also noted: species or system bacteria; CLSI broth microdilution MIC, no visible growth.

The test system of test [6] is T10, Escherichia coli ATCC 35218.
T10 construct: ATCC 35218
The experiment in a line: microbe, parasite or virus in culture. Also noted: species or system bacteria; CLSI broth microdilution MIC, no visible growth.

A further test relates to T11, Escherichia coli ec310.
T11 construct: ec310
The experiment in a line: microbe, parasite or virus in culture. Details: species or system bacteria; CLSI broth microdilution MIC, no visible growth.

The subject of a further test is T12, Escherichia coli ec308.
T12 construct: ec308
The experiment in a line: microbe, parasite or virus in culture. Details: species or system bacteria; CLSI broth microdilution MIC, no visible growth.

Another test relates to T13, E. coli ATCC 25922.
T13 construct: ATCC 25922
As to the kind of experiment: microbe, parasite or virus in culture. The note with it: Escherichia coli. Details: species or system bacteria; CLSI broth microdilution MIC, no visible growth.

The test system of the next test is T14, E. coli MC4100 WT.
T14 construct: MC4100 (ATCC 35695)
The experiment in a line: microbe, parasite or virus in culture. The note with it: Escherichia coli, MC4100WT. Also noted: species or system bacteria; CLSI broth microdilution MIC, no visible growth.

The next test deals with T15, E. coli MC4100 lptD4213.
T15 construct: MC4100 lptD4213 membrane-compromised
As to the kind of experiment: microbe, parasite or virus in culture. The note with it: Escherichia coli, MC4100LPTD4213, read-out: MIC.

The target in a further test is T16, S. aureus ATP synthase (Staphylococcus aureus, UniProt Q99SF0).
T16 construct: gene atpE
As to the kind of experiment: ATP production by membrane vesicles, luciferase luminescence. The class given is biochemical. The note with it: […] NADH, 1 mM ADP, 10 mM potassium phosphate; 30 min preincubation, 60 min reaction. From the text: ATP production by membrane vesicles, luciferase luminescence on S. aureus ATP synthase

The test system of test [7] is T17, Citrobacterfreundii ATCC 8090.
T17 construct: ATCC 8090
As to the kind of experiment: organism not typed. Details: species or system bacteria; CLSI broth microdilution MIC, no visible growth. The note with it: read-out: Table 5 TM-184 MIC.

Test [8] concerns T18, Escherichia coli ATCC 25922.
T18 construct: ATCC 25922
As to the kind of experiment: microbe, parasite or virus in culture.

Test [9] concerns the target T1, E. coli ATP synthase. As to the kind of experiment: ATP production by membrane vesicles, luciferase luminescence. The class given is biochemical. The note with it: […] NADH, 1 mM ADP, 10 mM potassium phosphate; 30 min preincubation, 60 min reaction. From the text:
ATP production by membrane vesicles, luciferase luminescence on E. coli ATP synthase

Where two headings read alike, the source gives them in different places.

With `O=[N+]([O-])c1ccc(Cl)c2nonc12` [4-chloro-7-nitrobenzofurazan, reference compound], at E. coli ATP synthase [1] (positive control, covalent), the Ki came to 1800 nM.

`C[C@H]1CC[C@]2(NC1)O[C@H]1C[C@H]3[C@@H]4CC[C@H]5CC(NC[C@H](N)Cc6ccc(I)cc6)CC[C@]5(C)[C@H]4CC[C@]3(C)[C@H]1[C@@H]2C` (mixture of isomers) [TM-184]: the MIC was 4 µg/mL with E. coli MC4100 acrAB; 2 µg/mL in [2] (ATCC29740, read-out: TM-184 MIC); at most 0.25 µg/mL in the test with S. aureus ATCC 29740hemB; 16 µg/mL with Escherichia coli ec309 (EC309, read-out: Table 3 TM-184 MIC); 16 µg/mL in [3] (70122CW2007, read-out: Table 3 TM-184 MIC); 16 µg/mL in the test on Escherichia coli ec302 (EC302, read-out: Table 3 TM-184 MIC). In addition, the MIC in [4] (95882CW2011, read-out: Table 3 TM-184 MIC) was 16 µg/mL; in the test with Escherichia coli ec305 (EC305, read-out: Table 3 TM-184 MIC), 2 µg/mL; in test [5] (ATCCBAA2471, read-out: Table 3 TM-184 MIC), 16 µg/mL; in test [6] (ATCC35218, read-out: Table 3 TM-184 MIC), 16 µg/mL; in the test on Escherichia coli ec310 (EC310, read-out: Table 3 TM-184 MIC) it was 16 µg/mL; in the test on Escherichia coli ec308 (EC308, read-out: Table 3 TM-184 MIC) it was 4 µg/mL. The MIC in the test with E. coli ATCC 25922 (ATCC25922, read-out: TM-184 MIC) is 4 µg/mL; with E. coli MC4100 WT (read-out: TM-184 MIC), 8 µg/mL; in the test with E. coli MC4100 lptD4213, 2 µg/mL; in test [7], 8 µg/mL; in [8] (ATCC25922, read-out: MIC (ug/ml) second column), 4 µg/mL. The Ki at E. coli ATP synthase [1] fell in the range of 800 to 1300 nM. In addition, the half-inhibitory concentration (IC50) (usually the concentration that inhibits the measured activity by half) came out at 700 ± 330 nM against S. aureus ATP synthase and 1570 ± 170 nM against E. coli ATP synthase [9].

`C[C@H]1CC[C@]2(NC1)O[C@H]1C[C@H]3[C@@H]4CC[C@H]5CC(NCCN)CC[C@]5(C)[C@H]4CC[C@]3(C)[C@H]1[C@@H]2C` (mixture of isomers) [TM-02]: the MIC was 8 µg/mL in the test with E. coli MC4100 acrAB; 4 µg/mL in [2] (ATCC29740, read-out: TM-02 MIC); at most 0.25 µg/mL in the test with S. aureus ATCC 29740hemB; 32 µg/mL with Escherichia coli ec309 (EC309, read-out: Table 3 TM-02 MIC); 16 µg/mL in test [3] (70122CW2007, read-out: Table 3 TM-02 MIC); 32 µg/mL in the test on Escherichia coli ec302 (EC302, read-out: Table 3 TM-02 MIC). Moreover, the MIC amounted to 32 µg/mL in test [4] (95882CW2011, read-out: Table 3 TM-02 MIC); 4 µg/mL in the test with Escherichia coli ec305 (EC305, read-out: Table 3 TM-02 MIC); 32 µg/mL in test [5] (ATCCBAA2471, read-out: Table 3 TM-02 MIC); 32 µg/mL in test [6] (ATCC35218, read-out: Table 3 TM-02 MIC); 32 µg/mL with Escherichia coli ec310 (EC310, read-out: Table 3 TM-02 MIC); 8 µg/mL in the test with Escherichia coli ec308 (EC308, read-out: Table 3 TM-02 MIC). Also, the MIC was found to be 32 µg/mL with E. coli ATCC 25922 (ATCC25922, read-out: TM-02 MIC); 16 µg/mL in the test on E. coli MC4100 WT (read-out: TM-02 MIC); 0.5 µg/mL in the test on E. coli MC4100 lptD4213; 32 µg/mL in [8] (ATCC25922, read-out: MIC (ug/ml) first column). Moreover, the figures for the IC50 at S. aureus ATP synthase and at E. coli ATP synthase [9] were 510 ± 170 nM and 1490 ± 280 nM, respectively.

Values taken from publication doi:10.1101/2025.08.21.671483v1, “In vitro and in vivo activity profiles of broad-spectrum bacterial ATP synthase inhibitors” (biorxiv, 2025).
